Experimental data taken from patent US20240425938A1, “COMPOSITIONS AND METHODS FOR CHAR[…] FREQUENCY MUTATIONS” (The Broad Institute, Inc., priority 2022, published 2024).

System: P. aeruginosa isolates
Type: cell-based, Pseudomonas aeruginosa

SMILES | Antibiotic resistance profile of isolates
C[C@@H](O)[C@H]1C(=O)N2C(C(=O)O)=C(S[C@@H]3CN[C@H](C(=O)N(C)C)C3)[C@H](C)[C@H]12 [meropenem] | resistance
CC(C)(O/N=C(\C(=O)N[C@@H]1C(=O)N2C(C(=O)[O-])=C(C[n+]3ccccc3)CS[C@H]12)c1csc(N)n1)C(=O)O [ceftazidime] | resistance
